Experimental findings from patent US12551494B2, “Pharmaceutical composition for preventing or treating dengue fever” (SEOUL NATIONAL UNIVERSITY R&DB FOUNDATION, priority 2021, dated 2026) are described below.

Several values for one entry are separate records, joined by “and”; a condition that tells them apart may be missing. Equal entries are not always repeated.

Data set [1] deals with DENV. The data set is described as follows: Time-of-addition assay in A549 cells. Format: cell-based, dengue virus. The settings on record: 48 h p.i. How it is done: A549 cells were seeded onto 24-well plates. After incubation overnight, cells were treated with ulipristal at the various time points and inoculated with DENV. At 48 h p.i., the cells were washed with 1× PBS and processed for qRT-PCR.
A549 cells were treated with ulipristal in three different conditions: treatment before the infection (pre-treatment), treatment along with the infection (co-treatment), and treatment after the infection (post-treatment) (FIG. 14A). […] Furthermore, the degree of inhibitory effect was decreased as the ulipristal administration was delayed (FIG. 14B).

The next data set deals with DENV (KBPV-VR-29). Description: Murine DENV infection model (AG129 mice). Type of data set: in vivo. The protocol: AG129 mice (8-10 weeks old, female) were purchased from Marshall BioResources and housed under pathogen-free conditions. Animal research was approved by the Institutional Animal Care and Use Committee of Seoul National University and was performed according to the guidelines of the recommendations from the Association for Assessment and Accreditation of Laboratory Animal Care.
The murine DENV infection model was as described in previous study (Park, S. J., Kim, J., Kang, S., Cha, H. J., Shin, H., Park, J., Jang, Y. S., Woo, J. S., Won, C., Min, D. H., 2020. Sci Adv 6 (22), eaaz8201.). AG129 mice were exposed with a target dose of […] of the DENV by intraperitoneal injection. One hour after the challenge, the animals were treated with ulipristal. The compound was dissolved in sesame oil at a 10× concentration and further diluted in 1× PBS. Ulipristal was administered to the animals by intraperitoneal injection.
Animals in the vehicle control groups were administered a solution with no drug. The animals were monitored for weight, morbidity (ruffled fur, hunched posture, etc.), and survival daily for a total of 14 days after infection. Mice with a weight <80% of their initial body weight were humanely euthanized. At 3 days p.i., mice were sacrificed from each group. Blood and organ samples were collected. Blood was clarified by centrifugation, and viremia was determined by qRT-PCR. Organs were homogenized, and total RNA was extracted using Trizol. The relative DENV RNA level from each organ was determined by qRT-PCR.
Organ samples were fixed with 4% paraformaldehyde and embedded in paraffin. Paraffin sections were stained with H&E at the pathology core facility in the Center for Medical Innovation, Seoul National University Hospital, Korea.
The DENV strain we used (KBPV-VR-29) has been reported as a mouse-adapted virus strain. […] One hour after the infection, the animals were treated with ulipristal or vehicle over 14 days, and survival was monitored during that period.
Ulipristal was given at a dose of 15 mg/kg every day through intraperitoneal injection.

The subject of data set [2] is DENV. The data set is described as follows: DENV infection in Huh7 cells (qRT-PCR of viral RNA, E protein immunostaining). Format: cell-based, dengue virus. The protocol:
(§1) Total RNA was extracted using Trizol (Invitrogen). The cDNA samples were prepared by reverse transcription using SuperScript II Reverse Transcriptase (Invitrogen). The synthesized cDNA samples were subjected to qRT-PCR with primers specific for each gene by using the PowerUp SYBR Green Master Mix (Applied Biosystems) and CFX Connect (Bio-Rad).
(§2) We further validated the antiviral activity of ulipristal using Huh7 (liver carcinoma cell line) and A549 (lung carcinoma cell line) cell lines as hosts for the DENV infection. Both cell monolayers were analyzed with qRT-PCR to observe the relative DENV RNA level. […] Moreover, the fluorescence signal of the viral E protein from immunostaining also was reduced by the ulipristal treatment (FIG. 11C).
A general note: Real-time PCR tracks product formation cycle by cycle.

For data set [3], the system named is DENV serotype 2. The data set is described as follows: GOViRA (graphene oxide-based viral RNA analysis) fluorescence antiviral assay / drug library screening in Vero E6 cells. Type of data set: cell-based, dengue virus. The protocol: Vero E6 cells were seeded onto 96-well, black wall, optical bottom plates at a density of 1.5×10^4 cells per well and incubated with DMEM supplemented with 10% FBS and P/S. After overnight incubation, the cells were briefly washed with 1× PBS and infected with DENV. Next, 20 pmol vPNA or β-actin PNA probe was mixed with 1.2 μg DRGON solution for 10 min at RT. The Vero E6 cells were treated with the PNA-DRGON complexes for 5 h. The plates were incubated for up to 72 h, and cell nuclei were counterstained with Hoechst 33342. Fluorescent images were obtained by the IN Cell Analyzer 2000 (GE Healthcare) and DeltaVision Elite (GE Healthcare) imaging system. The quantification of data was processed with the IN Cell Developer software (https://cyvitalifesciences.com).
For the drug library screening experiments, 1.5×10^4 Vero E6 cells in a total volume of 100 μL per well were seeded onto 96-well, black wall, optical bottom plates using DMEM media supplemented with 10% FBS and P/S and incubated overnight. Next, the cells were pretreated with 50 μL of experimental compounds or vehicle in DMEM supplemented with 2% FBS and P/S and incubated 1 h at 37° C. Next, 50 μL of DENV (a final MOI of 0.5) were added to each well, resulting in a 10 μM final concentration for each compound and cells were incubated for 48 h.
Infection was stopped by rinsing each well with 1× PBS, and the infected cells were treated with the PNA-DRGON complexes for 5 h at 37° C. and then briefly washed with 1× PBS. Fluorescent images were obtained by the IN Cell Analyzer 2000, and quantification of the data was processed using the IN Cell Developer software.
To determine its systemic reliability as a high-throughput screening assay, we used Z′-factor as a statistical parameter. […] To further verify whether the GOViRA system is capable of the quantitative analysis of antiviral activity, we utilized the system to investigate the cellular effect caused by a model representative antiviral compound, Ribavirin. […]

The subject of the next data set is Vero E6 cells. The data set is described as follows: Cell viability test (CCK-8 assay). Type of data set: cell-based. How it is done:
The CCK-8 assay was performed according to the manufacturer's instructions. Vero E6, Huh7, and A549 cells were seeded in 96-well culture plates with 100 μL of complete media. After 24 h of incubation, the cells were treated with nanomaterials or drug in serially diluted concentrations for 48 h. The cells were rinsed with 1× PBS twice, and CCK-8 reagent was treated at a concentration of 10% (v/v) and incubated for 1 h. The optical density at 450 nm was measured by SynergyMx (Biotek) in the absorbance mode.
In general terms: Tetrazolium assays rely on reduction of a dye to a coloured formazan, in cell work by metabolically active cells.

The test system of another data set is PR. The data set is described as follows: qRT-PCR analysis of PR expression in A549 cells. Format: cell-based. The conditions noted are these: 24 h of incubation. The protocol: as §1
A time-of-addition experiment was performed to determine which time point of the viral infection stage is affected by the administration of ulipristal. Because ulipristal is widely known as an SPRM compound, we chose a cell line without PR expression to exclude the influence of PR signaling on the time-of-addition experiment. […] After 24 h of incubation, the RNA expression level of each group was analyzed. There was no PR expression in the NT group (FIG. 13). […] Therefore, we examined the mode of action of ulipristal using the A549 cell line.

Data set [4] deals with DENV. The data set is described as follows: DENV infection in A549 cells (qRT-PCR of viral RNA, E protein immunostaining). Format: cell-based, dengue virus. How it is done:
as §1, §2

For data set [5], the system named is DENV. Description: qRT-PCR analysis of viral RNA in DENV-infected Vero E6 cells. Type of data set: cell-based, dengue virus. The conditions noted are these: dose-dependent treatment. How it is done: as §1
(§3) Standard assays were done to check the antiviral effect and cytotoxicity of ulipristal in vitro. The activity of ulipristal against DENV was evaluated by both FFA and qRT-PCR. For the FFA, Vero E6 cells were infected with DENV in the presence of various concentrations of ulipristal.
(§4) The anti-DENV activity was assessed by immunostaining with antibodies specific to the DENV E protein. […] The cytotoxicity of the compound in the Vero E6 cells was determined by the CCK-8 assay.

The test system of data set [6] is DENV serotype 2. The data set is described as follows: Focus-forming assay (FFA) in Vero E6 cells. Format: cell-based, dengue virus. How it is done:
The virus was titrated by FFA in Vero E6 cells. Ten-fold serial diluted virus in DMEM supplemented with 2% FBS and P/S was added onto confluent Vero E6 cell monolayers attached to 96-well, black wall, optical bottom plates (Corning) and incubated for 1 h. After the incubation, the wells were overlaid with 100 μL of DMEM with 10% FBS, P/S, and methylcellulose and incubated for 2 days. Following the incubation, cell monolayers were fixed with 4% paraformaldehyde and then treated with blocking solution for 1 h. Samples were then treated with the anti-Dengue virus E protein antibody (GeneTex, GTX127277), followed by FITC-labeled goat anti-mouse IgG secondary antibody (Sigma-Aldrich, F0257).
as §3, §4

The mark [7] stands for this setting: 15 mg/kg every day i.p., day 3 p.i.

As for `CC(=O)[C@@]1(O)CC[C@H]2[C@@H]3CCC4=CC(=O)CCC4=C3[C@@H](c3ccc(N(C)C)cc3)C[C@@]21C` [ulipristal], the figures for the “intracellular viral RNA level, antiviral effect” value in the data set with DENV [1] (co-treatment (along with the infection)), in the data set on DENV [1] (post-treatment (after the virus inoculation)) and in the data set on DENV [1] (pre-treatment (before the infection)) were “antiviral effect by the administration of the drug was observed”, “less inhibitory effect” and “antiviral effect by the administration of the drug was observed”, respectively. In the data set with DENV (KBPV-VR-29) (15 mg/kg every day i.p.), the “spleen histology (H&E), white-pulp/red-pulp boundary loss” value is “boundary loss was decreased”. The “viral RNA load in organs (spleen, lung, liver, large intestine)” value with DENV (KBPV-VR-29) (setting [7]) is recorded as “significantly decreased”. In addition, the “viral RNA load in the small intestine, difference vs vehicle” value in the data set on DENV (KBPV-VR-29) (setting [7]) is “not statistically significant”. The “viremia in the blood (qRT-PCR)” value with DENV (KBPV-VR-29) (15 mg/kg every day i.p., day 3 p.i., vs control group) is listed as “significantly reduced viremia”. Besides, the “liver histology (H&E): nuclear pleomorphism of hepatocytes, dilatation of sinusoids, focal necrosis” value with DENV (KBPV-VR-29) (15 mg/kg every day i.p., vs control group) was “significant reduction of such symptoms”. In the data set on DENV (KBPV-VR-29) (15 mg/kg every day, intraperitoneal, 14 days, log-rank test), the survival entry was “statistically significant survival benefit (P=0.0007)”. For the same compound, in the data set with DENV (KBPV-VR-29) (15 mg/kg every day, intraperitoneal, DENV 1×107 FFU i.p., 14 days), the “relative body weight change and disease symptoms” value was “Compared to the ulipristal-treated group, the control group exhibited a huge weight loss”. In addition, the “fluorescence signal of viral E protein (immunostaining)” value in the data set with DENV [2] and in the data set on DENV [4] was “reduced” in each case. For the same compound, the “relative DENV RNA level (qRT-PCR)” value in the data set on DENV [2] and with DENV [4] was “inhibited the DENV infection in both cell lines dose-dependently” in each case. In addition, in the data set with DENV serotype 2 [3] (10 μM, Vero E6 cells, pretreated 1 h, MOI 0.5, 48 h), the “fluorescence signal decrease in drug library screening” value is reported as under 25%. The “cell viability in drug library screening” value with Vero E6 cells (10 μM) is on record as “minimal effects on cell viability”. For the same compound, the “cytotoxicity / cell viability (CCK-8)” value in the data set with Vero E6 cells (48 h) is “no impact on cell viability”. Further, the “levels of PR expression (qRT-PCR)” value with PR was “did not influence the levels of PR expression”. The “relative expression level of viral RNA (qRT-PCR)” value in the data set with DENV [5] is “active against DENV”. The EC50 in the data set with DENV serotype 2 [6] (DENV serotype 2, read-out: half-effective concentration (EC50), anti-DENV activity by FFA) is 8.3 µM and 8.28 µM. Also, the “number of foci (FFA, DENV E protein immunostaining)” value in the data set on DENV serotype 2 [6] (various concentrations) was “number of foci decreased in a dose-dependent manner”.

As for `NC(=O)c1ncn([C@@H]2O[C@H](CO)[C@@H](O)[C@H]2O)n1` [ribavirin, Ribavirin], the “fluorescence signal (GOViRA), dose response” value in the data set on DENV serotype 2 [3] (DENV-infected Vero E6 cells) is recorded as “serial decrease in the fluorescence signal dose-dependently”. In the data set with DENV serotype 2 [3] (Dengue virus, Vero C1008, DENV-infected Vero E6 cells, concentrations 6.25 μM to 400 μM, PNA-DRGON complex after 48 hours, read-out: EC50 value for DENV serotype 2 (GOViRA system)), the EC50 turned out to be 49.2 ± 0.2 µM.
